Key:
[1] = system: adult patients with chronic low back pain; test: Study 1059, Phase 3: efficacy (LBPI, RMDQ) in chronic low back pain; type: in vivo, human; conditions: 100-300 mg daily oral
Protocol: The Low Back Pain Intensity (LBPI) measure is assessed with an 11-point numeric rating scale ranging from 0 (no pain) to 10 (worst possible pain). The LBPI score can be the daily average LBPI score.
The Roland Morris Disability Questionnaire (RMDQ) is an index of how well subjects with low back pain are able to function with regard to daily activities (Roland M, Fairbank. The Roland-Morris Questionnaire and the Oswestry Disability Questionnaire. Spine. 2000; 25 (4)3115-3124). It is a low back pain-specific assessment of physical function with scores ranging from 0 to 24 (lower scores indicate better function).
(§1) Patients were also required to have documented history of previous inadequate treatment response to at least 3 different categories of agents commonly used and generally considered effective for the treatment of chronic low back pain. Patients were required to discontinue all medications for the treatment of chronic low back pain during the primary efficacy assessment period (up to Week 16).
Approximately 1800 patients were planned to be randomized initially in a 2:2:2:3 ratio to 1 of 4 following treatment groups:
1. Placebo administered SC at an 8-week interval plus placebo matching tramadol PR up to Week 16. At the Week 16 visit, patients in this group were switched in a blinded fashion in a 1:1 ratio to either tanezumab 5 mg or tanezumab 10 mg administered SC at an 8 week interval plus placebo matching tramadol PR to Week 56;
2. Tanezumab 5 mg SC administered at an 8-week interval plus placebo matching tramadol PR to Week 56;
3. Tanezumab 10 mg SC administered at an 8-week interval plus placebo matching tramadol PR to Week 56;
4. Oral tramadol PR 100-300 mg daily plus placebo administered SC at an 8-week interval to Week 56.
To achieve the initial randomization and intended re-randomization at Week 16 for placebo patients, a randomization ratio 1:1:2:2:3 for placebo→tanezumab 5 mg (at Week 16), placebo→tanezumab 10 mg (at Week 16), tanezumab 5 mg, tanezumab 10 mg, and tramadol PR was used at the beginning of the trial.
Table 2 summarizes the requirements for analgesic medication usage prior to Screening and the requirements for LBPI and Patient's Global Assessment (PGA) of CLBP. The current study enrolled patients who were more refractory to standard of care treatments for CLBP and had higher LBPI scores at Baseline.

[2] = system: adult patients with chronic low back pain; test: Study 1059: adverse events and adjudicated joint safety; type: in vivo, human
Description: For subjects who are identified with a possible or probable joint event (i.e., rapidly progressive osteoarthritis, subchondral insufficiency fractures, spontaneous osteonecrosis of the knee (SPONK), primary osteonecrosis or pathological fracture) and subjects undergoing total joint replacement for any reason, all images and other source documentation may be provided to the blinded Adjudication Committee for review and adjudication of the event. The Adjudication Committee's assessment of the event may represent the final classification of the event.
as §1

[3] = system: subjects with chronic low back pain (CLBP); test: Study 1063, Phase 3 in Japan: efficacy (LBPI, RMDQ) in chronic low back pain; type: in vivo, human; conditions: 100 mg BID
Protocol: Patients received a total of seven SC injections, separated by 8 weeks (tanezumab or
Treatment groups were as follows: 1. […] Placebo for tanezumab SC and celecoxib BID.
The Intent-to-Treat (ITT) analysis set included all patients who were randomized and received at least one dose of SC study medication (either tanezumab or placebo). This analysis set was primary for all efficacy endpoints, which were analyzed according to randomization assignment, and was labeled as the ‘ITT population’.

[4] = system: subjects with chronic low back pain (CLBP); test: Study 1063: adverse events and adjudicated joint safety
Protocol: This second study (termed “Study 1063) was a randomized, double-blind, active-controlled, multicenter, parallel-group Phase 3 study in Japan to evaluate the safety and efficacy of tanezumab when administered by SC injection for up to 56 weeks in subjects with chronic low back pain (CLBP). […] Patients were also required to be experiencing some benefit from their current stable dose regimen of oral therapy of NSAID (celecoxib 200 mg/day [100 mg BID], loxoprofen 120 to 180 mg/day or meloxicam 5 to 15 mg/day) treatment, but still required additional pain relief at screening. […] Patients with a diagnosis of osteoarthritis of the knee or hip as defined by the American College of Rheumatology combined clinical and radiographic criteria or who had Kellgren Lawrence Grade ≥2 radiographic evidence of hip osteoarthritis or Kellgren Lawrence Grade ≤3 radiographic evidence of knee osteoarthritis were excluded.
Treatment groups were as follows: 1. Tanezumab 5 mg SC and placebo for celecoxib BID; 2. Tanezumab 10 mg SC and placebo for celecoxib BID; 3. Placebo for tanezumab SC and celecoxib BID.
This study was designed with a total (post-randomization) duration of 80 weeks and consisted of three periods: (1) a Screening period (up to a maximum of 37 days), (2) a Double-blind Treatment period (56 weeks), and (3) a Safety Follow-up (24 weeks) Period (FIG. 8). The Screening Period included a Washout Period (lasting 2-32 days) if required, and an Initial Pain Assessment Period (IPAP) (5 days prior to Randomization/Baseline; minimum 4 days).
The Safety analysis set included all patients who received at least one dose of SC study treatment. This analysis set was primary for all safety endpoints, which were analyzed according to treatment received, and was labeled as the ‘Safety population’. In this study, the ITT and Safety analysis sets were identical.

low back pain = conditions: 500 mg BID; prior study; cited from earlier work
[5] = 100 mg BID, 56-week treatment period

## COc1cccc(C2(O)CCCCC2CN(C)C)c1 (stereo not drawn) [Tramadol PR, tramadol, reference compound]
[1]
  LBPI change from Baseline to Week 2, Difference vs. plc: −0.19
  LBPI change from Baseline to Week 16, LS Mean: −2.81
  Proportion of patients with ≥50% improvement in LBPI at Week 16: (42.8) %
  RMDQ change from Baseline to Week 16, Difference vs. plc: −0.26
  RMDQ change from Baseline to Week 16, LS Mean: −5.21
  percentage of patients achieving ≥30% improvement in LBPI at week 16: 57.9%
  ≥30% improvement in LBPI at week 16, odds ratio versus placebo: 1.08
  ≥50% improvement in LBPI at Week 16, OR vs. plc: 1.25
[2]; 100-300 mg daily oral
  incidence of composite joint safety endpoint: 0.2%
  observation-time adjusted rate of composite joint safety endpoint: 1.9 events/1000 patient-years
  patients with joint safety event adjudicated to RPOA Type 1: 0.2%
  patients with joint safety event adjudicated to RPOA Type 1, number: 1 patients
[2]; tramadol PR-treated patients
  patients with adjudicated event of RPOA: 0.2%
[2]; tramadol PR-treated patients, 80-week observation period
  patients with joint safety event requiring adjudication: 0.7%

## Cc1ccc(-c2cc(C(F)(F)F)nn2-c2ccc(S(N)(=O)=O)cc2)cc1 [celecoxib]
[3]
  Proportion of Patients with ≥50% Improvement in LBPI at Week 16 (Mixed BOCF/LOCF): (32.6%)
[3]; ITT
  Change from Baseline to Week 16 in LBPI (Multiple Imputation), LS Mean: −2.28
  Change from Baseline to Week 16 in RMDQ (Multiple Imputation), LS Mean: −3.84
[4]; 100 mg BID
  frequency of adverse events of potential sympathetic dysfunction: 7.6%
  incidence of composite joint safety endpoint: 0%
  observation-time adjusted rate of composite joint safety endpoint: 0 event/1000 patient-years
  patients who met criteria for adjudication of a joint safety event, number: 1 patient
[4]; [5]
  incidence of serious adverse events: 2.2%
  overall incidence of adverse events: 67.4%
[4]; 100 mg BID, during the study
  Composite Joint Safety Endpoint, n (%): 0 n (%)
  Pathological Fracture, n (%): 0 n (%)
  Patients analyzed by the Adjudication Committee, n (%): 1 (1.1%) n (%)
  Patients with Only Normal Progression of OA, n (%): 0 n (%)
  Patients with Other Joint Outcome, n (%): 1 (1.1%) n (%)
  Primary Osteonecrosis, n (%): 0 n (%)
  RPOA type 1, n (%): 0 n (%)
  RPOA type 2, n (%): 0 n (%)
  RPOA, n (%): 0 n (%)
  Subchondral Insufficiency Fracture, n (%): 0 n (%)
[4]; 100 mg BID, treatment period
  Arthralgia, number (%) of patients: 6 (6.5) n (%)
  Back pain, number (%) of patients: 4 (4.3) n (%)
  Contusion, number (%) of patients: 2 (2.2) n (%)
  Diarrhoea, number (%) of patients: 3 (3.3) n (%)
  Discontinued from study due to Adverse Event, number (%) of patients: 0 n (%)
  Discontinued study drug due to Adverse Event and continued study, number (%) of patients: 4 (4.3) n (%)
  Discontinued study drug due to Adverse Event, number (%) of patients: 4 (4.3) n (%)
  Fall, number (%) of patients: 3 (3.3) n (%)
  Gastroenteritis, number (%) of patients: 3 (3.3) n (%)
  Headache, number (%) of patients: 2 (2.2) n (%)
  Hypertension, number (%) of patients: 3 (3.3) n (%)
  Hypoaesthesia, number (%) of patients: 3 (3.3) n (%)
  Intervertebral disc protrusion, number (%) of patients: 3 (3.3) n (%)
  Musculoskeletal pain, number (%) of patients: 3 (3.3) n (%)
  Myalgia, number (%) of patients: 1 (1.1) n (%)
  Nasopharyngitis, number (%) of patients: 6 (6.5) n (%)
  Pain in extremity, number (%) of patients: 3 (3.3) n (%)
  Pneumonia, number (%) of patients: 1 (1.1) n (%)
  Pyrexia, number (%) of patients: 4 (4.3) n (%)
  Serious Adverse Event, number (%) of patients: 2 (2.2) n (%)
  Severe Adverse Event, number (%) of patients: 1 (1.1) n (%)
  frequency of adverse events of abnormal peripheral sensation: 4.3%
  incidence of discontinuations from treatment due to an adverse event: 4.3%
[4]; 100 mg BID, treatment period, all causalities
  Adverse Event, number (%) of patients: 62 (67.4) n (%)
[4]; celecoxib-treated patients, 80-week observation period
  patients who met criteria for adjudication of joint safety outcome: 1.1%

## COc1ccc2cc([C@H](C)C(=O)O)ccc2c1 [naproxen]
Low back pain
  LBPI endpoints relative to placebo: significant differences relative to placebo
  RMDQ endpoint relative to placebo: not the RMDQ endpoint

From patent publication US20220135663A1, “Method of treatment of Chronic Low Back Pain” (Pfizer Inc., priority 2019, published 2022)
